Results published in the supplement of paper PMC10307832.

Experiments:
Assay in all cases: relative viability (nuclei count vs DMSO), 5 days (fraction); higher = more cells survive
LXF-289 = test system: LXF-289
In short: (§1)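 Relative viability is defined as nuclei in treated wells over nuclei in vehicle wells. Duplicate plates were run and medians reported. Lung cancer cell lines in 1536-well plates were dosed by pin tool one day after seeding, with one drug or with a fixed anchor-drug dose plus five library-drug doses (not always all listed) in √10 steps, and nuclei were counted after 5 days.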

LU99A = test system: LU99A
In short: as §1

UMC-11 = test system: UMC-11
In short: as §1

NCI-H1666 = test system: NCI-H1666
In short: as §1

NCI-H2009 = test system: NCI-H2009
In short: as §1

HOP-62 = test system: HOP-62
In short: as §1

LC-2-ad = test system: LC-2-ad
In short: as §1

HCC-78 = test system: HCC-78
In short: as §1

NCI-H1793 = test system: NCI-H1793
In short: as §1

HCC-366 = test system: HCC-366
In short: as §1

NCI-H2085 = test system: NCI-H2085
In short: as §1

CC(=O)O[C@@]12CO[C@@H]1C[C@H](O)[C@@]1(C)C(=O)[C@H](O)C3=C(C)[C@@H](OC(=O)[C@H](O)[C@@H](NC(=O)OC(C)(C)C)c4ccccc4)C[C@@](O)([C@@H](OC(=O)c4ccccc4)[C@H]21)C3(C)C [Docetaxel] + CS(=O)(=O)CCNCc1ccc(-c2ccc3ncnc(Nc4ccc(OCc5cccc(F)c5)c(Cl)c4)c3c2)o1 [Lapatinib] (partner 2 µM) showed a relative viability (LXF-289; first compound 0.0002 µM) of 0.926, a relative viability (LXF-289; first compound 0.000632 µM) of 0.847 and a relative viability (LXF-289; first compound 0.002 µM) of 0.393. It also gave a relative viability (LXF-289; first compound 0.006325 µM) of 0.137, a relative viability (LXF-289; first compound 0.02 µM) of 0.109 and a relative viability (LU99A; first compound 0.0002 µM) of 0.799. The relative viability (LU99A; first compound 0.000632 µM) was 0.424, the relative viability (LU99A; first compound 0.002 µM) was 0.423 and the relative viability (LU99A; first compound 0.006325 µM) was 0.255. For the same compound, the relative viability (LU99A; first compound 0.02 µM) was 0.188, the relative viability (UMC-11; first compound 0.0002 µM) was 0.8 and the relative viability (UMC-11; first compound 0.000632 µM) was 0.831. It also gave a relative viability (UMC-11; first compound 0.002 µM) of 0.249, a relative viability (UMC-11; first compound 0.006325 µM) of 0.26 and a relative viability (UMC-11; first compound 0.02 µM) of 0.148. The relative viability (NCI-H1666; first compound 0.0002 µM) was 0.462, the relative viability (NCI-H1666; first compound 0.000632 µM) was 0.461 and the relative viability (NCI-H1666; first compound 0.002 µM) was 0.299. The relative viability (NCI-H1666; first compound 0.006325 µM) was 0.197, the relative viability (NCI-H1666; first compound 0.02 µM) was 0.198 and the relative viability (NCI-H2009; first compound 0.0002 µM) was 0.965. It also gave a relative viability (NCI-H2009; first compound 0.000632 µM) of 0.922, a relative viability (NCI-H2009; first compound 0.002 µM) of 0.412 and a relative viability (NCI-H2009; first compound 0.006325 µM) of 0.195. It also gave a relative viability (NCI-H2009; first compound 0.02 µM) of 0.12, a relative viability (HOP-62; first compound 0.0002 µM) of 0.828 and a relative viability (HOP-62; first compound 0.000632 µM) of 0.448. The relative viability (HOP-62; first compound 0.02 µM) was 0.112, the relative viability (LC-2-ad; first compound 0.0002 µM) was 0.538 and the relative viability (LC-2-ad; first compound 0.000632 µM) was 0.296. It also gave a relative viability (LC-2-ad; first compound 0.002 µM) of 0.14, a relative viability (LC-2-ad; first compound 0.006325 µM) of 0.112 and a relative viability (LC-2-ad; first compound 0.02 µM) of 0.0888. The relative viability (HCC-78; first compound 0.0002 µM) was 0.593, the relative viability (HCC-78; first compound 0.000632 µM) was 0.634 and the relative viability (HCC-78; first compound 0.002 µM) was 0.461. It also gave a relative viability (HCC-78; first compound 0.006325 µM) of 0.246, a relative viability (HCC-78; first compound 0.02 µM) of 0.204 and a relative viability (NCI-H1793; first compound 0.0002 µM) of 0.569. For the same compound, the relative viability (NCI-H1793; first compound 0.000632 µM) was 0.618, the relative viability (NCI-H1793; first compound 0.006325 µM) was 0.315 and the relative viability (NCI-H1793; first compound 0.02 µM) was 0.216. It also gave a relative viability (HCC-366; first compound 0.0002 µM) of 0.938, a relative viability (HCC-366; first compound 0.000632 µM) of 0.054 and a relative viability (HCC-366; first compound 0.002 µM) of 0.0282. It also gave a relative viability (HCC-366; first compound 0.006325 µM) of 0.0194, a relative viability (HCC-366; first compound 0.02 µM) of 0.011 and a relative viability (NCI-H2085; first compound 0.0002 µM) of 0.787. The relative viability (NCI-H2085; first compound 0.000632 µM) was 0.71 and the relative viability (NCI-H2085; first compound 0.002 µM) was 0.507.
